Assay results taken from ChEMBL document CHEMBL4507279, “Data for DCP probe BI-9627” (2021).

Key:
[1] = molecular target: Sodium/hydrogen exchanger 2 (Homo sapiens, UniProt Q9UBY0); assay: pHi change assay with SLC9A2
[2] = molecular target: AP2-associated protein kinase 1 (Homo sapiens) (UniProt Q2M2I8); details: Compound concentration 1000.0 nM
[3] = system: Tyrosine-protein kinase ABL1 (Homo sapiens), P00519 [Y253F]; details: Compound concentration 1000.0 nM
[4] = molecular target: RAC-gamma serine/threonine-protein kinase (Homo sapiens) (UniProt Q9Y243); details: Compound concentration 1000.0 nM
[5] = molecular target: Mitogen-activated protein kinase kinase kinase 6 (Homo sapiens) (UniProt O95382); details: Compound concentration 1000.0 nM
[6] = molecular target: Aurora kinase C (Homo sapiens) (UniProt Q9UQB9); details: Compound concentration 1000.0 nM
[7] = molecular target: Calcium/calmodulin-dependent protein kinase type II subunit delta (Homo sapiens) (UniProt Q13557); details: Compound concentration 1000.0 nM
[8] = molecular target: Cyclin-dependent kinase 4 (Homo sapiens) (UniProt P11802); details: Compound concentration 1000.0 nM
[9] = molecular target: Cyclin-dependent kinase-like 5 (Homo sapiens) (UniProt O76039); details: Compound concentration 1000.0 nM
[10] = molecular target: Casein kinase I isoform gamma-1 (Homo sapiens) (UniProt Q9HCP0); details: Compound concentration 1000.0 nM
[11] = molecular target: Casein kinase I isoform gamma-3 (Homo sapiens) (UniProt Q9Y6M4); details: Compound concentration 1000.0 nM
[12] = molecular target: Mitogen-activated protein kinase kinase kinase 12 (Homo sapiens) (UniProt Q12852); details: Compound concentration 1000.0 nM
[13] = molecular target: Myotonin-protein kinase (Homo sapiens) (UniProt Q09013); details: Compound concentration 1000.0 nM
[14] = molecular target: Receptor tyrosine-protein kinase erbB-3 (Homo sapiens) (UniProt P21860); details: Compound concentration 1000.0 nM
[15] = molecular target: Mitogen-activated protein kinase 4 (Homo sapiens) (UniProt P31152); details: Compound concentration 1000.0 nM
[16] = system: Receptor-type tyrosine-protein kinase FLT3 (Homo sapiens), P36888 [N841I]; details: Compound concentration 1000.0 nM
[17] = molecular target: Inhibitor of nuclear factor kappa-B kinase subunit epsilon (Homo sapiens) (UniProt Q14164); details: Compound concentration 1000.0 nM
[18] = molecular target: Tyrosine-protein kinase JAK1 (Homo sapiens) (UniProt P23458); details: Compound concentration 1000.0 nM
[19] = molecular target: Mitogen-activated protein kinase kinase kinase kinase 3 (Homo sapiens) (UniProt Q8IVH8); details: Compound concentration 1000.0 nM
[20] = molecular target: Serine/threonine-protein kinase 24 (Homo sapiens) (UniProt Q9Y6E0); details: Compound concentration 1000.0 nM
[21] = molecular target: Myosin light chain kinase family member 4 (Homo sapiens) (UniProt Q86YV6); details: Compound concentration 1000.0 nM
[22] = molecular target: Serine/threonine-protein kinase Nek7 (Homo sapiens) (UniProt Q8TDX7); details: Compound concentration 1000.0 nM
[23] = molecular target: 3-phosphoinositide-dependent protein kinase 1 (Homo sapiens) (UniProt O15530); details: Compound concentration 1000.0 nM
[24] = molecular target: Phosphatidylinositol 4-phosphate 3-kinase C2 domain-containing subunit beta (Homo sapiens) (UniProt O00750); details: Compound concentration 1000.0 nM
[25] = molecular target: cAMP-dependent protein kinase catalytic subunit PRKX (Homo sapiens) (UniProt P51817); details: Compound concentration 1000.0 nM
[26] = molecular target: Ribosomal protein S6 kinase alpha-2 (Homo sapiens) (UniProt Q15349); details: Compound concentration 1000.0 nM
[27] = molecular target: Serine/threonine-protein kinase SBK1 (Homo sapiens) (UniProt Q52WX2); details: Compound concentration 1000.0 nM
[28] = molecular target: Mitogen-activated protein kinase kinase kinase 7 (Homo sapiens) (UniProt O43318); details: Compound concentration 1000.0 nM
[29] = molecular target: 5-hydroxytryptamine receptor 6 (Homo sapiens) (UniProt P50406); details: Compound concentration 10.0 uM
[30] = molecular target: T1, Muscarinic acetylcholine receptor M2 (Homo sapiens) (UniProt P08172); details: Compound concentration 10.0 uM
T1 sequence (whole entry): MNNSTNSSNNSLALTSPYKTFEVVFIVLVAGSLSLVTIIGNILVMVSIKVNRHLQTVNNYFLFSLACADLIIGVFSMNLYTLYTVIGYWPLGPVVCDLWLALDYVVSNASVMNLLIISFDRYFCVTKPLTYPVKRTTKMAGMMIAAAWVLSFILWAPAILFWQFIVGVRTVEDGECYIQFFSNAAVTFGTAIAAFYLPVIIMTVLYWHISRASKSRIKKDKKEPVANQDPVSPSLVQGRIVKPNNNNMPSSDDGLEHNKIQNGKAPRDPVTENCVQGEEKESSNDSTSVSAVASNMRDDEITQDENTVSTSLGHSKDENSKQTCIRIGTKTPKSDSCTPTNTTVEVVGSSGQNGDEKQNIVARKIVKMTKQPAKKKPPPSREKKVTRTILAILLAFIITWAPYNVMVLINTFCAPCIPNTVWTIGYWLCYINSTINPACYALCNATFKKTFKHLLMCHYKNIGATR

[31] = molecular target: T2, Alpha-1D adrenergic receptor (Homo sapiens) (UniProt P25100); details: Compound concentration 10.0 uM
T2 sequence (whole entry): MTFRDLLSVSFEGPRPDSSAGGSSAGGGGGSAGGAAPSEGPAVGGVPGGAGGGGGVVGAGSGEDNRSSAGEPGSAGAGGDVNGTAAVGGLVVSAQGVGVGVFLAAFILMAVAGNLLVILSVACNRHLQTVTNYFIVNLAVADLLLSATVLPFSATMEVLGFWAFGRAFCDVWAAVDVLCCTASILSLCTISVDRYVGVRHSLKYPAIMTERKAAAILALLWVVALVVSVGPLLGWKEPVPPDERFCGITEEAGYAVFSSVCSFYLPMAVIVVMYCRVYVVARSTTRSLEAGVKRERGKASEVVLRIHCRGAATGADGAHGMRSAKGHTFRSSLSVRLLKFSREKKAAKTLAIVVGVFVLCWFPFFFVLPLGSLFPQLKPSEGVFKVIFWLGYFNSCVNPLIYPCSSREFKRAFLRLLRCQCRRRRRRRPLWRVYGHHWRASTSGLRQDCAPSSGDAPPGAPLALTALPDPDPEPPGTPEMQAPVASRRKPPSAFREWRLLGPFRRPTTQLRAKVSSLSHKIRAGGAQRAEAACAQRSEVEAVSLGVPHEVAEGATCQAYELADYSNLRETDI

Sequence of Mitogen-activated protein kinase kinase kinase 7 (Homo sapiens) (O43318 whole entry): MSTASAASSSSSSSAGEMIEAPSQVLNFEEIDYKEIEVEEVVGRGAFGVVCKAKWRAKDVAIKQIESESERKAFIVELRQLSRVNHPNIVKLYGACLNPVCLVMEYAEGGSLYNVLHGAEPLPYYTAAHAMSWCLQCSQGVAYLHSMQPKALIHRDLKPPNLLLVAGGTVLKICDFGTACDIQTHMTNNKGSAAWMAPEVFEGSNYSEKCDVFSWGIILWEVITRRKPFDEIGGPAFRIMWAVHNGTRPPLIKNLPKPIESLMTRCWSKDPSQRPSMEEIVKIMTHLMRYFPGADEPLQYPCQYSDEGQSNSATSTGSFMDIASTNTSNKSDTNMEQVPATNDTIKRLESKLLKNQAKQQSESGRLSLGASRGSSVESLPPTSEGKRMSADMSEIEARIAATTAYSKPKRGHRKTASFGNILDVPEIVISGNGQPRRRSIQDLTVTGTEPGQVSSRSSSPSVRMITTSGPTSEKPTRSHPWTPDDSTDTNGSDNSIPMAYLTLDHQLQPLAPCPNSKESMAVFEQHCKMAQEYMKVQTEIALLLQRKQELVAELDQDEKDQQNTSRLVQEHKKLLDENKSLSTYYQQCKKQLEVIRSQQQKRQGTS
Sequence of Aurora kinase C (Homo sapiens) (Q9UQB9 whole entry): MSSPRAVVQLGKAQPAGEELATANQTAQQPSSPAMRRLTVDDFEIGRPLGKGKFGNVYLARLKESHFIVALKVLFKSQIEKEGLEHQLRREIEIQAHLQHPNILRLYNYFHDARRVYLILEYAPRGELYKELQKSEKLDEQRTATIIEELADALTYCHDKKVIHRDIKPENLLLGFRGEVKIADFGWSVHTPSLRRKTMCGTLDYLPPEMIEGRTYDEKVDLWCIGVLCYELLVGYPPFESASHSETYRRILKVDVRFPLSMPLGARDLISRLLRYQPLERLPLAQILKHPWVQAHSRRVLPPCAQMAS
Sequence of Receptor tyrosine-protein kinase erbB-3 (Homo sapiens) (P21860 whole entry): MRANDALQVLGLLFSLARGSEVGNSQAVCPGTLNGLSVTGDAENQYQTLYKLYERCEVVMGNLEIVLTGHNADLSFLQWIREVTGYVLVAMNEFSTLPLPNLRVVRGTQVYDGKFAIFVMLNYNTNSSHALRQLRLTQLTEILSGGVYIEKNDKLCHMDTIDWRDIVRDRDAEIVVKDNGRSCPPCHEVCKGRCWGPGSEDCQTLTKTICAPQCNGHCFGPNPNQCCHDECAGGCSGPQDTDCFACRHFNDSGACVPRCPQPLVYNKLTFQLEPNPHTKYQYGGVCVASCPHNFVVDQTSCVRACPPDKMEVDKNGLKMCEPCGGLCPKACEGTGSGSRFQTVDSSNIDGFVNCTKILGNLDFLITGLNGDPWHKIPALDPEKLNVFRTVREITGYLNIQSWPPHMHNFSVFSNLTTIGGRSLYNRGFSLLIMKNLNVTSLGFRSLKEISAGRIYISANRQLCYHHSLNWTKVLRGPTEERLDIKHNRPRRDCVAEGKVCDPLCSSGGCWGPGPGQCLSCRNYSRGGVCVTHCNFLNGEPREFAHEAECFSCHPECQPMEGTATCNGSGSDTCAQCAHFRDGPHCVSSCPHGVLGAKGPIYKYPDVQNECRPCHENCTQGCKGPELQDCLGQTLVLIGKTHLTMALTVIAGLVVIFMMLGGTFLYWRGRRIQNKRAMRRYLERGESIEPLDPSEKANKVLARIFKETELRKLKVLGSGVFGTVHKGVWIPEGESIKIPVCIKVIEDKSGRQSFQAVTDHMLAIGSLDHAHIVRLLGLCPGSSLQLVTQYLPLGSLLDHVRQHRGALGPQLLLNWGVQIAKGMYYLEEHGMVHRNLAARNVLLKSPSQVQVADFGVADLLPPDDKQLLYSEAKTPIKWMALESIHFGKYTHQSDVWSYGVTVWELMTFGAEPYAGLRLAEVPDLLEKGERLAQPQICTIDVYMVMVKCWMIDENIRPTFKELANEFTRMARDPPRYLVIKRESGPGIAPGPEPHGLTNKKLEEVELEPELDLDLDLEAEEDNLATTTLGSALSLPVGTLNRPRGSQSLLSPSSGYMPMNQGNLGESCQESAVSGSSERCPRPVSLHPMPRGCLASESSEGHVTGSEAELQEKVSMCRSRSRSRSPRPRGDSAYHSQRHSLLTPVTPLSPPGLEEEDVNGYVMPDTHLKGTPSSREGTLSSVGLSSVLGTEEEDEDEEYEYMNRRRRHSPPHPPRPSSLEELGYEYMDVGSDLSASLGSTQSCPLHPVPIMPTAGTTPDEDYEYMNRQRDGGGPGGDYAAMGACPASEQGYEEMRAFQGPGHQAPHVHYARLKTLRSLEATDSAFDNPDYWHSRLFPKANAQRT
Sequence of Serine/threonine-protein kinase Nek7 (Homo sapiens) (Q8TDX7 whole entry, looked up): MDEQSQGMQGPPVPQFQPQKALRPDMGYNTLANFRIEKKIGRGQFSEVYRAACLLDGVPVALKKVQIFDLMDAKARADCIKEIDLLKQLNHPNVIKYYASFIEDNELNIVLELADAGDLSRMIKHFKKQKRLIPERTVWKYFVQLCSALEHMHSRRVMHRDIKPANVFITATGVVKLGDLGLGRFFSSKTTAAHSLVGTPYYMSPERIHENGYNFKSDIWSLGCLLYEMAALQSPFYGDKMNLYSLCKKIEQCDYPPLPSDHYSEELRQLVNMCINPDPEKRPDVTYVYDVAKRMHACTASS
Sequence of Cyclin-dependent kinase 4 (Homo sapiens) (P11802 whole entry): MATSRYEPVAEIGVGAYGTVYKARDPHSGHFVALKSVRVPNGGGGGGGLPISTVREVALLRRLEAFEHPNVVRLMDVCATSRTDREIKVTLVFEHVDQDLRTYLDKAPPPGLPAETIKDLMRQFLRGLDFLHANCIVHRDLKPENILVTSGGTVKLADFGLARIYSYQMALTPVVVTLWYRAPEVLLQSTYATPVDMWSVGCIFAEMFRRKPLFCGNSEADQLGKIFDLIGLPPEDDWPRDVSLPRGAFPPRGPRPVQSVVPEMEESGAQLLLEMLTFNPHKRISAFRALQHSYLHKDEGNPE
Sequence of Serine/threonine-protein kinase 24 (Homo sapiens) (Q9Y6E0 whole entry, looked up): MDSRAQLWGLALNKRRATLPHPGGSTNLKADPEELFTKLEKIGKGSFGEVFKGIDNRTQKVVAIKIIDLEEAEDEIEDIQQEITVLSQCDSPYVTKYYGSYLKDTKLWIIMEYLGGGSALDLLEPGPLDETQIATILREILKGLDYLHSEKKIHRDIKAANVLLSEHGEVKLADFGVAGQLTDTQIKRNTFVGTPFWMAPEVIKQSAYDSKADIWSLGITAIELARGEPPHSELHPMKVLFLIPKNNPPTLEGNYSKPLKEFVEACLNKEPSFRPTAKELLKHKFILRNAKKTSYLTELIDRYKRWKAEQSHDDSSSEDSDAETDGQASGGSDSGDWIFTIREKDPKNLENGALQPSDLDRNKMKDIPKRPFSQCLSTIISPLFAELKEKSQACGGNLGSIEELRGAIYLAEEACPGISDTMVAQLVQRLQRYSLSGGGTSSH
Sequence of Inhibitor of nuclear factor kappa-B kinase subunit epsilon (Homo sapiens) (Q14164 whole entry): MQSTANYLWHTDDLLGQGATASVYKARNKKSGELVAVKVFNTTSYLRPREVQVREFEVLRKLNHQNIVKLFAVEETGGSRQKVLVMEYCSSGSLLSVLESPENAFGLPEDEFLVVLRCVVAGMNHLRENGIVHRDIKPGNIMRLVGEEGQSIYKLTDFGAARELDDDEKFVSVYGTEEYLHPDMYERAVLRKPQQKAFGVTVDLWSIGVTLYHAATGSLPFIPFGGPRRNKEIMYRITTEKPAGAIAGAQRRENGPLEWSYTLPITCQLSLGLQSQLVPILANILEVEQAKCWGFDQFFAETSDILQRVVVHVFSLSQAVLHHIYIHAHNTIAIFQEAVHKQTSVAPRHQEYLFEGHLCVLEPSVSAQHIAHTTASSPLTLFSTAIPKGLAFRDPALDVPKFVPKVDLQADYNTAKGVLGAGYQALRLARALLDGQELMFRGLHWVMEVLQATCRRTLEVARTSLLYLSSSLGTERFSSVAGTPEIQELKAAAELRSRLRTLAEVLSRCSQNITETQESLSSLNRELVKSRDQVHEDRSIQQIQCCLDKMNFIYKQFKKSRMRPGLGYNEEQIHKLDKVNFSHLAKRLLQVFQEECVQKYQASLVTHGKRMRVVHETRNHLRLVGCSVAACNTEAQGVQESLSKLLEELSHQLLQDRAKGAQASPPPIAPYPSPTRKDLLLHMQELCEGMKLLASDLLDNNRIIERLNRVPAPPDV
Sequence of cAMP-dependent protein kinase catalytic subunit PRKX (Homo sapiens) (P51817 whole entry): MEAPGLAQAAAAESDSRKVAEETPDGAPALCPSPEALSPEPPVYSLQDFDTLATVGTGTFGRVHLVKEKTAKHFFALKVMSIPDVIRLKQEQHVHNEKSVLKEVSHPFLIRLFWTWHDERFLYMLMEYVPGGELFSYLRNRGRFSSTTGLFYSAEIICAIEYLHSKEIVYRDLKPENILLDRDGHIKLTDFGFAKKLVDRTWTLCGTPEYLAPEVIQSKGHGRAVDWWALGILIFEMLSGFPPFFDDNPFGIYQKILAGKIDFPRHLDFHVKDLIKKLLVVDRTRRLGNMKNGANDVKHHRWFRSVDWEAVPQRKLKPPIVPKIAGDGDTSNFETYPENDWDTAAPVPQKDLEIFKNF
Sequence of Calcium/calmodulin-dependent protein kinase type II subunit delta (Homo sapiens) (Q13557 whole entry): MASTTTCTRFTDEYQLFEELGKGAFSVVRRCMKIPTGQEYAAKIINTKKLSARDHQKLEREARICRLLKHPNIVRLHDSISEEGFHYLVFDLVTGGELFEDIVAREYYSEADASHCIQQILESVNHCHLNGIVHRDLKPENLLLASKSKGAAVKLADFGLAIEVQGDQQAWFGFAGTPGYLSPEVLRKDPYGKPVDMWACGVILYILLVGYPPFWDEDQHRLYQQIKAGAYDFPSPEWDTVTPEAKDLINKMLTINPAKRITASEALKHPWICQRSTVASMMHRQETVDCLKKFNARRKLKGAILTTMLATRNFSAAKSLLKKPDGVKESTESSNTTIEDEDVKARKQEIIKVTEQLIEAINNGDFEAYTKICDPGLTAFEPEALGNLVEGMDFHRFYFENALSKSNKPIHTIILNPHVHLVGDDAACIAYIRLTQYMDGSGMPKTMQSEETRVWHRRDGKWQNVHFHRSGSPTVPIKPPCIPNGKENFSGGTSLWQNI

SMILES	IC50 [1]	residual activity [2]	residual activity [3]	residual activity [4]	residual activity [5]	residual activity [6]	residual activity [7]	residual activity [8]	residual activity [9]	residual activity [10]	residual activity [11]	residual activity [12]	residual activity [13]	residual activity [14]	residual activity [15]	residual activity [16]	residual activity [17]	residual activity [18]	residual activity [19]	residual activity [20]	further results
CC(=O)N1CCC(c2ccc(C(=O)NC3=NCCN3)cc2C(F)(F)F)CC1 [BI 0054]	> 10 µM (not active)	100%	90%	100%	93%	100%	100%	98%	79%	95%	100%	100%	100%	94%	87%	94%	71%	100%	95%	97%	residual activity [21]: 100%; residual activity [22]: 100%; residual activity [23]: 94%; residual activity [24]: 50%; residual activity [25]: 100%; residual activity [26]: 100%; residual activity [27]: 97%; residual activity [28]: 100%; inhibition [29]: 0.267%; inhibition [30]: -0.799%; inhibition [31]: 50%
CC(=O)N1CCC(c2ccc(C(=O)NC(=N)N)cc2C(F)(F)F)CC1 [BI 9627]	0.231 µM (not active)	100%	92%	100%	86%	100%	100%	100%	82%	100%	100%	100%	100%	98%	100%	100%	70%	100%	100%	100%	residual activity [21]: 100%; residual activity [22]: 100%; residual activity [23]: 100%; residual activity [24]: 95%; residual activity [25]: 100%; residual activity [26]: 90%; residual activity [27]: 100%; residual activity [28]: 100%; inhibition [29]: 1.25%; inhibition [30]: 23.5%; inhibition [31]: 50%
